# From patent publication US10039772B2, “Methods and compositions for treating alcohol use disorders” (priority 2015, dated 2018)
# Where a name gives a salt, the structure may show the parent alone.
# Tested on: alcohol dependent and nondependent Wistar rats
# Test: Rat operant self-administration of alcohol (dependent and nondependent rats)
# Assay type: in vivo
# Conditions: acute, systemic administration
# Experimental: Self-administration sessions were conducted in standard operant conditioning chambers (Med Associates). The rats were trained to self-administer alcohol as previously reported (13). First, the rats were given free-choice access to alcohol (10% w/v) and water for 1 day in their home cages to habituate them to the taste of alcohol. Second, the rats were subjected to an overnight session in the operant chambers with access to one lever (right lever) that delivered water in a fixed-ratio 1 (FR1) schedule where every lever press is reinforced with delivery of 0.1 ml of solution. Food was available ad libitum during this training. Third, after 1 day off, the rats were subjected to a 2 hour session (FR1) for 1 day and a 1 hour session (FR1) the next day, with one lever delivering alcohol (right lever). All of the subsequent sessions lasted 30 min, and two levers were available (left lever: water; right lever: alcohol) until stable levels of intake were reached. Upon completion of this procedure, the animals were allowed to self-administer a 10% (w/v) alcohol solution and water on an FR1 schedule of reinforcement.
# The rats were made dependent by chronic, intermittent exposure to alcohol vapors as previously described (13).
# Effect of carbenoxolone (CBX) on alcohol drinking in rats and mice.
row,Compound,"alcohol self-administration, alcohol dependent rats"
1,"CCCN(CCC)S(=O)(=O)c1ccc(C(=O)O)cc1 [Number 257, Probenecid]",decreases

# Tested on: C57BL/6J mice
# Test: Mouse drinking in the dark (DID) binge-like drinking
# Assay type: in vivo
# Conditions: first 2 h vs whole 4 h session
# Experimental: The DID paradigm capitalizes on the circadian rhythm in drinking of mice utilizing a discrete time of exposure to ethanol to obtain pharmacologically significant ethanol drinking in a four-day procedure (114, 115). It is considered a preclinical model of binge alcohol drinking (116). Blood ethanol levels of C57BL/6J mice in DID are reliably over 100 mg % following the final drinking bout and produce behavioral intoxication in C57BL/6J mice (115). In the DID paradigm, the water bottle is replaced with a bottle containing 20% ethanol for 2 hours in the home cage 3 hours after lights go off. The design involves 3 daily drinking sessions of 2 hours and a fourth of 4 hours (114, 115).
row,Compound,time course of the effect on ethanol intake within the DID session
1,"CC1(C)[C@@H](OC(=O)CCC(=O)O)CC[C@]2(C)[C@H]3C(=O)C=C4[C@@H]5C[C@@](C)(C(=O)O)CC[C@]5(C)CC[C@@]4(C)[C@]3(C)CC[C@@H]12 [Number 4, 18α-glycyrrhetinic acid 3β-O-hemisuccinate]",more pronounced in the first 2 hours

# Same assay, conditions: mice, 4 h drinking session, vs saline vehicle
row,Compound,ethanol intake in the DID paradigm
1,"CC1(C)[C@@H](OC(=O)CCC(=O)O)CC[C@]2(C)[C@H]3C(=O)C=C4[C@@H]5C[C@@](C)(C(=O)O)CC[C@]5(C)CC[C@@]4(C)[C@]3(C)CC[C@@H]12 [Number 4, 18α-glycyrrhetinic acid 3β-O-hemisuccinate]",reduce

# Tested on: 11β-HSD1, 11β-HSD2
# Test: not given
# Conditions: 11β-HSD isozyme specificity per cited reference; cited from earlier work
row,Compound,Specificity
1,O=S(=O)(c1ccc(Cl)c(Cl)c1)N1CCN(c2ncccc2C(F)(F)F)CC1 [Number 41],11β- HSD1 > 2
2,Cc1ccc(S(=O)(=O)N2CCN(c3nc4ccccc4n3C)CC2)cc1 [Number 126],11β- HSD1 > 2
3,O=C1C(Cc2ccccc2)CCN1C1CCCCC1 (centres unmarked) [Number 56],11β- HSD1 > 2
4,Cn1c(-c2ccc(-c3cnccn3)cc2Cl)nnc1[C@]1(c2ccc(Cl)cc2)C[C@@H](F)C1 [Number 27],11β- HSD1 > 2
5,O=C1CC2(CCN(C(=O)C3(c4ccccc4)CC3)CC2)Oc2ccc(F)cc21 [Number 95],11β- HSD1 > 2
6,CC(C)(C(=O)NC1C2CC3CC1CC(C(N)=O)(C3)C2)N1CCN(c2ccc(C(F)(F)F)cn2)CC1 (centres unmarked) [Number 60],11β- HSD1 > 2
7,CC(C)N(c1ccc([C@](C)(O)C(F)(F)F)cc1)S(=O)(=O)c1cc(Cl)ccc1Cl [Number 20],11β- HSD1 > 2
8,CC(C)(C)c1c(C(=O)NC2C3CC4CC(C3)CC2C4)cnn1-c1ccc(C(=O)O)cc1 (centres unmarked) [Number 52],11β- HSD1 > 2
9,CC1(C)C(=O)N(c2cccc(S(C)(=O)=O)c2)C1c1cccc2nccnc12 (centres unmarked) [Number 53],11β- HSD1 > 2
10,CCCN(C(=O)c1ccc(CNS(=O)(=O)c2cccc(Cl)c2)cc1)C1CCCCCC1 [Number 83],11β- HSD1 > 2
11,C[C@@H]1CN(c2ccc(F)cc2C(F)(F)F)CCN1S(=O)(=O)c1ccc([C@@](O)(C(N)=O)C(F)(F)F)s1 [Number 45],11β- HSD1 > 2
12,COc1cc(C(=O)Nc2ccc(C(=O)N3CCCCC3)c(O)c2)cc(OC)c1OC [Number 105],11β- HSD1 > 2
13,CN(C(=O)c1csc(CNS(=O)(=O)c2cccc(Cl)c2)n1)C1CCCCCC1 [Number 85],11β- HSD1 > 2
14,Cc1ccc(C2(C(=O)N(C)Cc3cccs3)CC2)cc1 [Number 120],11β- HSD1 > 2
15,CN(C(=O)N1CCC(CN2C(=O)Nc3ccc(Cl)cc3S2(=O)=O)CC1)C1CCCCCC1 [Number 86],11β- HSD1 > 2
16,N#Cc1cccnc1N[C@@H]1CCN(C(=O)O[C@H]2C3CC4CC2C[C@@](C(N)=O)(C4)C3)C1 [Number 79],11β- HSD1 > 2

row,Compound,Specificity
1,COc1ccc(N2C(=O)C(C)(C)C2c2ccccc2OC)cc1 (centres unmarked) [Number 51],11β- HSD1 > 2
2,O=C(CS(=O)(=O)c1ccccc1)c1ccc(C(F)(F)F)cc1 [Number 40],11β- HSD1 > 2
3,O=C(CSc1nnnn1-c1cccc(Cl)c1)c1ccccc1 [Number 113],11β- HSD1 > 2
4,CCS(=O)(=O)CCCC12CCC(c3nnc(-c4ccccc4C(F)(F)F)n3C)(CC1)CC2 [Number 29],11β- HSD1 > 2
5,COC1(C)CCCN(S(=O)(=O)c2ccc(C(C)(C)C)cc2)CC1 (centres unmarked) [Number 108],11β- HSD1 > 2
6,Nc1c(Cl)cc(C(=O)N(C2CCCC2)C2CC2)cc1Cl [Number 54],11β- HSD1 > 2
7,CC(C)(Oc1ccc(-n2cccn2)cn1)C(=O)N[C@H]1C2CC3CC1C[C@@](C(N)=O)(C3)C2 [Number 63],11β- HSD1 > 2
8,N#Cc1c(O)nc(SCc2ccccc2Cl)nc1-c1ccccc1 [Number 69],11β- HSD1 > 2
9,Cn1c(-c2ccc(-c3cccc(S(C)(=O)=O)c3)cc2Cl)nnc1C1(c2ccc(Cl)cc2)CCC1 [Number 26],11β- HSD1 > 2
10,C[C@]1(C(=O)N[C@H]2C3CC4CC2C[C@@](O)(C4)C3)CCCN1S(=O)(=O)c1cccc2cccnc12 [Number 90],11β- HSD1 > 2
11,Cn1c(-c2ccccc2C(F)(F)F)nnc1C12CCC(c3nc(-c4ccc(F)cc4)no3)(CC1)CC2 [Number 33],11β- HSD1 > 2
12,CC(C)(C)c1ccc(S(=O)(=O)N2C[C@H]3C[C@@H]2CN3C2CCCC2)cc1 [Number 30],11β- HSD1 > 2
13,Cc1ccc(-n2nnnc2SCC(=O)C(C)(C)C)c(C)c1 [Number 112],11β- HSD1 > 2
14,CN(Cc1cccs1)C(=O)C12CC3CC(CC(C3)C1)C2 [Number 119],11β- HSD1 > 2
15,O=C(O)CC1(c2ccc(F)cc2)C2CCCC1CCC2 (centres unmarked) [Number 74],11β- HSD1 > 2

# Same assay, conditions: cited from earlier work
row,Compound,Specificity
1,CC(C)[C@]1(C)SC(N[C@H]2C[C@H]3C[C@@H]2C[C@@H]3O)=NC1=O [Number 14],11β- HSD1 > 2
2,C[C@@H](c1ccc(-c2ccc(F)cc2F)cc1)N1CC[C@](CCO)(c2ccc(F)cc2)OC1=O [Number 81],11β- HSD1 > 2
3,Cc1c(Cl)cccc1S(=O)(=O)N1CCCC[C@@H]1C(=O)N[C@H]1C2CC3CC1C[C@](O)(C3)C2 [Number 88],11β- HSD1 > 2
4,Cc1cccc(N2CCC(C)(c3ccccc3)OC2=O)c1 (centres unmarked) [Number 80],11β- HSD1 > 2
5,C[C@@H]1CN(c2ccc(F)cc2C(F)(F)F)CCN1S(=O)(=O)c1ccc(C(N)=O)cc1Cl [Number 44],11β- HSD1 > 2

# Target: Pannexin 1 (Homo sapiens, UniProt Q96RD7)
# Test: not given
# Conditions: cited from earlier work
# Chain of Pannexin 1 (Q96RD7 whole entry, species assumed): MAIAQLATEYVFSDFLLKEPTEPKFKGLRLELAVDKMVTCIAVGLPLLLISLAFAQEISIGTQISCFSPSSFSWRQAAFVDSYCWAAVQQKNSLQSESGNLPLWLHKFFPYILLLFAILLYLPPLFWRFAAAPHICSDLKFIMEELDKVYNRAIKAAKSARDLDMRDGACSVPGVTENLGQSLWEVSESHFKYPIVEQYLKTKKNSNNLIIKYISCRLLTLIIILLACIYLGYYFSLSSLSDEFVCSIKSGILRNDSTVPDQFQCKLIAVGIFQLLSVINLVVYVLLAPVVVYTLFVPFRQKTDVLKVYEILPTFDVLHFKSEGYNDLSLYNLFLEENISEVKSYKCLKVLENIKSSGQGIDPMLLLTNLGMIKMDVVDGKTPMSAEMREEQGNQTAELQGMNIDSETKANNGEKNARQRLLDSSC
row,Compound,inhibition of Pannexin 1
1,"CCOc1ccc(Nc2ccc(/C(=C3C=C/C(=[N+](/CC)Cc4cccc(S(=O)(=O)[O-])c4)C=C/3C)c3ccc(N(CC)Cc4cccc(S(=O)(=O)[O-])c4)cc3C)cc2)cc1.[Na+] [Number 256, Acid blue 90, Coomassie Brilliant Blue G]",most selective and least detrimental Pannexin 1 inhibitor
2,O=C(O)c1ccccc1Nc1cccc(C(F)(F)F)c1 [flufenamic acid],found to inhibit the channel
3,"CCCN(CCC)S(=O)(=O)c1ccc(C(=O)O)cc1 [Number 257, Probenecid]",inhibits
4,280: mimetic peptide SRPTEKTIFII [Number 280],inhibited
5,283: mimetic peptide WRQAAFVDSY [Number 283],inhibited
6,Nc1ncnc2c1ncn2[C@@H]1O[C@H](COP(=O)(O)OP(=O)(O)OP(=O)(O)O)[C@@H](O)[C@H]1O [ATP],inhibits
7,"Nc1ncnc2c1ncn2[C@@H]1O[C@H](COP(=O)(O)OP(=O)(O)OP(=O)(O)O)C(OC(=O)c2ccc(C(=O)c3ccccc3)cc2)C1O (some centres unmarked) [Number 265, 2′(3′)-O-(4-Benzoylbenzoyl)adenosine 5′-triphosphate triethylammonium salt]",inhibit Pannexin 1 more effectively than AYP
8,282: mimetic peptide SSFSWRQAAFVDS [Number 282],inhibited
9,281: mimetic peptide GHGDPLHLEEVKC [Number 281],inhibited

# Tested on: inflammasome activation in neurons and astrocytes
# Test: not given
# Conditions: cited from earlier work
row,Compound,inflammasome activation in neurons and astrocytes
1,"CCCN(CCC)S(=O)(=O)c1ccc(C(=O)O)cc1 [Number 257, Probenecid]",prevents

# Tested on: dependent rats
# Test: not given
# Conditions: systemic glucocorticoid receptor antagonism; cited from earlier work
row,Compound,escalated alcohol drinking and compulsive response for alcohol
1,CC#C[C@]1(O)CC[C@H]2[C@@H]3CCC4=CC(=O)CCC4=C3[C@@H](c3ccc(N(C)C)cc3)C[C@@]21C [mifepristone],blocked
